Measured values published in US5447720A, “Composition and method for treatment of hemoglobinopathies” (Fadulu; Sunday O., priority 1993, dated 1995).

Assays:
sickling [1] = conditions: words; cited from earlier work
HbF = conditions: sickle cell patients; words; cited from earlier work
sickling [2] = experiment: Anti-sickling activity of acid components (test not specified); conditions: words

Compound	anti-sickling activity of less polar acids (sickling [2])	further results
O=C(O)c1ccccc1CO [2-hydroxymethylbenzoic acid]	–	in vitro anti-sickling effect (literature) (sickling [1]): in vitro nonsickling characteristics
Nc1ncn([C@@H]2O[C@H](CO)[C@@H](O)[C@H]2O)c(=O)n1 [5-azacytidine]	–	effect on HbF levels (literature) (HbF): increased HbF levels
CCCCC/C=C\C/C=C\CCCCCCCC(=O)O [linoleic]	little if any anti-sickling activity	–
CC/C=C\C/C=C\C/C=C\CCCCCCCC(=O)O [linolenic]	little if any anti-sickling activity	–
CCCCCCCC/C=C\CCCCCCCC(=O)O [oleic acids]	little if any anti-sickling activity	–
CCCCCCCCCCCCCCCCCC(=O)O [stearic]	little if any anti-sickling activity	–
arginine butyrate	–	effect on HbF levels (literature) (HbF): rapid stimulation of the HbF
